Legend:
NCI-H187 [1] = test: Selectivity ratio of IC50 of ellipticine to IC50 of compound for human NCI-H187 cells; format: functional
NCI-H187 [2] = test: Cytotoxicity against human NCI-H187 cells after 5 days by Resazurin Microplate Assay; format: functional, cell-based; settings: NCI-H187, 120 h
Vero [3] = test: Selectivity ratio of IC50 for african green monkey Vero cells to IC50 for human NCI-H187 cells
Vero [4] = test: Cytotoxicity against african green monkey Vero cells by green fluorescent protein based assay; format: cell-based; settings: Chlorocebus sabaeus
KB [5] = test: Cytotoxicity against human KB cells after 3 days by Resazurin Microplate Assay; format: functional, cell-based; settings: 72 h
KB [6] = test: Cytotoxicity against human KB cells at >100 uM after 3 days by Resazurin Microplate Assay; format: functional, cell-based
Vero [7] = test: Cytotoxicity against african green monkey Vero cells at >100 uM by green fluorescent protein based assay; format: cell-based, Chlorocebus sabaeus
NCI-H187 [8] = test: Cytotoxicity against human NCI-H187 cells at >100 uM after 5 days by Resazurin Microplate Assay; format: functional, cell-based
Vero [9] = test: Selectivity ratio of IC50 for african green monkey Vero cells to IC50 for human KB cells

| Structure (SMILES) | IC50 (NCI-H187 [2]) [µM] | IC50 (KB [5]) [µM] | IC50 (KB [6]) | IC50 (NCI-H187 [8]) | other results |
| --- | --- | --- | --- | --- | --- |
| COc1cc(O)c2c(c1)OC(c1ccccc1)C(OC)/C2=N\O (stereo unspecified) | 0.23 | 23.9 | – | – | fold change (FC) (NCI-H187 [1]): 12; fold change (FC) (Vero [3]): 180; IC50 (Vero [4]): 41200 nM |
| COc1cc(OC)c2c(c1)OC(c1ccccc1)C/C2=N\O (stereo unspecified) | 53.2 | – | Not Active | – | – |
| COc1ccc(C2C/C(=N\O)c3c(OC)cc(OC)cc3O2)cc1 (stereo unspecified) | 4.04 | 43.1 | – | – | IC50 (Vero [7]): Non-toxic |
| COc1ccc(C2CC(O)c3c(OC)cc(OC)cc3O2)cc1 (stereo unspecified) | – | – | Not Active | Not Active | – |
| COc1cc(O)c2c(=O)c(OC)c(-c3ccccc3)oc2c1 | – | – | Not Active | Not Active | IC50 (Vero [7]): Non-toxic |
| COc1cc(O)c2c(c1)OC(c1ccccc1)C/C2=N/O (stereo unspecified) | 0.014 | 0.26 | – | – | fold change (FC) (NCI-H187 [1]): 200; fold change (FC) (Vero [3]): 190; IC50 (Vero [4]): 2670 nM; fold change (FC) (Vero [9]): 10 |
| O/N=C1\CC(c2ccccc2)Oc2cc(O)cc(O)c21 (stereo unspecified) | 2.32 | 84.9 | – | – | IC50 (Vero [7]): Non-toxic |
| COc1cc(OC)c2c(c1)OC(c1ccccc1)CC2O (stereo unspecified) | – | 92.1 | – | Not Active | – |
| COc1cc(O)c(C(=O)CCc2ccccc2)c(O)c1 | 9.7 | – | Not Active | – | – |
| COc1cc(O)c(C(=O)CCc2ccccc2)c(OC)c1 | – | – | Not Active | Not Active | – |
| COc1ccc(CCC(=O)c2c(O)cc(OC)cc2OC)cc1 | – | – | Not Active | Not Active | – |
| COc1cc(O)c2c(c1)O[C@H](c1ccccc1)[C@H](OC)C2=O (mixture of isomers) | 98.2 | 30.4 | – | – | – |
| COc1cc(O)c2c(c1)O[C@H](c1ccccc1)[C@H](OC)[C@@H]2O (racemic) | 95.6 | 56.8 | – | – | – |
| COc1ccc(C2CC(=O)c3c(OC)cc(OC)cc3O2)cc1 (racemic) | 25.1 | 78.8 | – | – | – |
| COc1cc(OC)c2c(=O)cc(-c3ccccc3)oc2c1 [CHRYSIN DIMETHYL ETHER] | – | – | Not Active | Not Active | IC50 (Vero [7]): Non-toxic |
| COc1cc(OC)c2c(c1)OC(c1ccccc1)CC2=O (stereo unspecified) [DIMETHYLPINOCEMBRIN] | 33.1 | 39.9 | – | – | – |
| Cc1c2ccncc2c(C)c2c1[nH]c1ccccc12 [ELLIPTECINE] | 2.77 | 1.79 | – | – | IC50 (Vero [4]): 2290 nM |
| O=C1C[C@@H](c2ccccc2)Oc2cc(O)cc(O)c21 [PINOCEMBRIN] | 95.5 | 99.2 | – | – | – |
| COc1cc(O)c2c(c1)O[C@H](c1ccccc1)CC2=O [PINOSTROBIN] | – | – | Not Active | Not Active | – |
| COc1cc(O)c2c(=O)cc(-c3ccccc3)oc2c1 [TECHTOCHRYSIN] | – | – | Not Active | Not Active | IC50 (Vero [7]): Non-toxic |
| COc1ccc(-c2cc(=O)c3c(OC)cc(OC)cc3o2)cc1 [TRIMETHYLAPIGENIN] | – | – | Not Active | Not Active | IC50 (Vero [7]): Non-toxic |

From ChEMBL document CHEMBL1157916, “Cytotoxicity against KB and NCI-H187 cell lines of modified flavonoids from Kaempferia parviflora” (Bioorg Med Chem Lett, 2010)
